In patent publication US20240075000A1 (priority 2021, published 2024):

Legend:
[1] = tested on: resistance-trained adults; conditions: in vivo; cited from earlier work
fetus = conditions: in vivo; cited from earlier work
LD50 toxicity = conditions: in vivo
Experimental: The dose ratio between toxic and therapeutic effects is the therapeutic index and it can be expressed as the ratio LD50/ED50. […] The “no observable adverse effects level” (NOAEL) in a 90-day sub-chronic rat study was 500 mg/kg (the highest dose in the test).

Parkinson's patients = test: double blinded placebo-controlled trial in Parkinson's patients, MDS-UPDRS fatigue question 1.13; assay type: in vivo, human; conditions: 2 capsules benaGene (100 mg oxaloacetate/150 mg ascorbic acid) per day, 4 months, P value<0.05, 13 patients
Experimental: As used herein, the term “MDS-UPDRS” refers to the “Movement Disorder Society-Sponsored Revision of the United Parkinson's Disease Rating Scale” (Goetz et al, Movement Disorder Society-Sponsored Revision of the United Parkinson's Disease Rating Scale (MDS-UPDRS): Scale Presentation and Clinimetric Testing Results, Movement Disorders Vol. 23, No. 15, 2008, pp. 2129-2170).
Based on the findings of the Inventor, a clinical trial was performed on Parkinson's Disease patients. The trial used the MDS-UPDRS (Goetz et al, Movement Disorder Society-Sponsored Revision of the United Parkinson's Disease Rating Scale (MDS-UPDRS): Scale Presentation and Clinimetric Testing Results, Movement Disorders Vol. 23, No. 15, 2008, pp. 2129-2170) (45) as a validated method to clinically measure pathological fatigue in Parkinson's patients. The Fatigue question is as follows: • 1.13 Fatigue • Over the past week, have you usually felt fatigued? This feeling is not part of being sleepy or sad • 0: Normal: No fatigue • 1: Slight: Fatigue occurs.

ALS patient = ALS patient on long-term supplementation; assay type: in vivo, human; conditions: 3,000 mg daily, after 8 months
Description: For ALS, this is surprising and welcome news as the anticipated decline rate for this period of time ranges from 12% to 43% as measured by the ALS FRS. (Ong M L, Tan P F, Holbrook J D. Predicting functional decline and survival in amyotrophic lateral sclerosis. PLoS One. 2017; 12(4):e0174925. Published 2017 Apr. 13. doi:10.1371/journal.pone.0174925).
The patient's email: • “Dear Alan, Good afternoon. […] We are thrilled! Could we please have some more medicine? Thanks!”

pneumonia patient = test: fatigue after pneumonia, patient testimonial; assay type: in vivo, human; conditions: 500 mg daily
Description: The Inventor has supplied Anhydrous Enol-Oxaloacetate for fatigue after pneumonia. Pneumonia patients often suffer from physiological fatigue. In a retrospective study of 506 adults with clinical and radiographic evidence of pneumonia, […] of the patients suffered from fatigue at 90 days after diagnosis. (Metlay J P, Fine M J, Schulz R, Marrie T J, Coley C M, Kapoor W N, et al. Measuring symptomatic and functional recovery in patients with community-acquired pneumonia. J Gen Intern Med. 1997; 12(7):423-30). […] The place where oxaloacetate made the most significant difference for me was in alleviation of the crushing fatigue that accompanied the pneumonia. […] On querying nurses and physical therapists about this response, the universal answer was that it was “typical.” Speaking with people who had had pneumonia at different ages—granted that this is anecdotal—garnered consistent stories of extreme fatigue and a slow recovery that took years to achieve prior energy levels even with people who had been physically active teenagers at the time. • I was in the hospital for 2 weeks and then in skilled care for about 6 weeks, putting me in the 40% of the population that don't manage to avoid hospitalization. […]

patients with ME/CFS = test: clinical trial in ME/CFS, three dosage levels; assay type: in vivo, human
cancer patients = test: cancer patient fatigue case reports (Examples 13-17); assay type: in vivo, human
Description: A cancer patient with recurrent stage 4 glioblastoma multiforme encountered significant fatigue as part of the ongoing disease.
A cancer patient with Stage 2 primary prostate cancer experienced significant fatigue. […] The patient has been able to eliminate pathological fatigue for 4 years now and is continuing the dosage.
A cancer patient with stage 4 primary hepatocellular carcinoma experienced significant fatigue, and due to cancer progression, was placed in hospice.
A cancer patient with stage 4 breast cancer experienced pathological fatigue.
A cancer patient with stage 3 colon cancer experienced pathological fatigue. […] The patient continued to be fatigue-free and went into cancer remission, which was also fatigue free.

[2] = tested on: patient with Alzheimer's disease; test: Alzheimer's disease patient fatigue case; assay type: in vivo, human; conditions: caregiver testimonial
Description: A patient with Alzheimer's disease experienced significant muscle and mental fatigue. […] The testimonial is shown below.

[3] = tested on: patient diagnosed with Fibromyalgia; test: Fibromyalgia patient fatigue case; assay type: in vivo, human
Description: A patient diagnosed with Fibromyalgia had significant fatigue. […] They increased their dosage to 6 capsules per day and has seen more than a 50% improvement in their fatigue.

cancer cells = conditions: glioblastoma; cited from earlier work
[4] = tested on: mitochondrial production and density; conditions: cited from earlier work
glucose uptake = conditions: diabetic patients and Alzheimer's patients; cited from earlier work
Mouse Soleus Muscle = conditions: normal cells, fatigue stimulated by electrical current applied to the muscle; cited from earlier work
[5] = tested on: post-COVID-19 fatigue patient; test: post-COVID-19 fatigue case, physician (Example 3); conditions: 500 mg BID
[6] = tested on: patients with post-COVID-19 fatigue; test: clinical trial in Long Haul post-COVID-19 fatigue; conditions: oral 500 mg BID, 6 weeks
Experimental: Fatigue is assessed by the Chalder Fatigue Scale, the Fatigue Severity Scale, and PROMIS-Fatigue-Short Form 7a. Scores are summarized as means and standard deviations and confidence intervals will be calculated. Changes are also summarized as effect sizes. […] All patients provided written informed consent to participate in the study prior to being screened.
18 patients who suffered from “Long Haul” post-COVID-19 fatigue for an average of 6 months were recruited to a clinical trial.

In the case of `Cn1c(=O)c2c(ncn2C)n(C)c1=O` [Caffeine], the “effects on muscular performance” value [1] is given as “minimal effects on muscular performance”.

For `NC(=O)C[S+]([O-])C(c1ccccc1)c1ccccc1` (centres unmarked) [Modafinil], the “animal reproduction studies, finding” value (fetus) is listed as “adverse effect on the fetus”.

In the case of `CC(N)Cc1ccccc1` (centres unmarked) [amphetamine], the “animal reproduction studies, finding” value (fetus) is listed as “adverse effect on the fetus”.

In the case of `C[C@H](N)Cc1ccccc1` [dextroamphetamine], the “animal reproduction studies, finding” value (fetus) is listed as “adverse effect on the fetus”.

For `COC(=O)C(c1ccccc1)C1CCCCN1` (centres unmarked) [methylphenidate], the “animal reproduction studies, finding” value (fetus) is listed as “adverse effect on the fetus”.

For `O=C(O)CC(=O)C(=O)O` [oxaloacetate, 2-oxobutanedioic Acid], the LD50 (LD50 toxicity) was “above 5 g/kg of body weight”, the “improvement of MDS-UPDRS fatigue score over baseline” value (Parkinson's patients) was 28.7% and the “function, fatigue/muscle function” value (ALS patient) was “no decline in function”. The “fatigue after Pneumonia” value (pneumonia patient) was “rapid resolution of fatigue”, the “reduction from baseline fatigue, Chalder Fatigue Scale” value (patients with ME/CFS; 500 mg BID, 2 weeks, N=22) was 15.3% and the “reduction in fatigue, Chalder Fatigue Scale” value (patients with ME/CFS; 500 mg BID, 6-weeks, N=22) was 21.9%. For the same compound, the “reduction in fatigue, Chalder Fatigue Scale” value (patients with ME/CFS; 1,000 mg BID, 6-weeks, N=25) was 30.2%, the “reduction in fatigue, Chalder Fatigue Scale” value (patients with ME/CFS; 1,000 mg TID, 2 weeks, N=22) was 17.5% and the “severe Adverse Effects recorded in the study” value (patients with ME/CFS; 69 patients, all dosage levels) was “no severe Adverse Effects”. The “patients in the study improved over historical placebo” value (patients with ME/CFS; historical placebo effect 5.9%) was 76.8%, the “patients who experienced insomnia” value (patients with ME/CFS; of 69, resolved by moving dosing to breakfast and lunch) was 1 patient and the “patients who experienced dyspepsia” value (patients with ME/CFS; of 69, resolved by taking with food) was 4 patients. For the same compound, the pathological fatigue (cancer patients; Stage 2 primary prostate cancer, 1,000 mg daily, 4 years) was “ameliorated”, the adverse events (cancer patients; glioblastoma patient, 6,000 mg daily for one year) was “without any significant adverse events” and the side effects (cancer patients; hepatocellular carcinoma patient, 3,000 mg per day for 10 months) was “without side effects”. The side effects (cancer patients; prostate cancer patient, 1,000 mg daily) was “No side effects”, the “fatigue associated with the cancer” value (cancer patients; recurrent stage 4 glioblastoma multiforme, 6,000 mg daily) was “ameliorated” and the fatigue (cancer patients; stage 3 colon cancer, 1,000 mg per day (500 mg BID)) was “significant reduction in fatigue”. For the same compound, the fatigue (cancer patients; stage 4 breast cancer, 1,000 mg per day, after 3 days) was “significant reduction in fatigue”, the fatigue (cancer patients; stage 4 primary hepatocellular carcinoma, 3,000 mg per day) was “significant reduction in fatigue” and the “mental and physical pathological fatigue” value [2] was “significantly reduces mental and physical pathological fatigue”. For the same compound, the fatigue ([3]; 2 capsules of 100 mg per day) was “improvement”, the improvement in fatigue ([3]; 6 capsules of 100 mg per day) was greater than 50% and the “glycolysis and formation of lactate” value (cancer cells) was “reducing both glycolysis and the formation of lactate”. The “mitochondrial production and density” value [4] was “increased mitochondrial production and density”, the glucose uptake (glucose uptake) was “increase glucose uptake” and the “muscle endurance and muscle fatigue” value (Mouse Soleus Muscle) was “increase muscle endurance and reduce muscle fatigue”. For the same compound, the “side effect reported by the patient” value [5] was “nausea”, the “adverse events during the trial” value [6] was “no significant adverse events” and the “reduction in fatigue compared to baseline, PROMIS Fatigue Short Form 7a” value ([6]; 18 patients, P<0.005) was 21%. The “reduction in fatigue from baseline, Fatigue Severity Scale” value ([6]; 18 patients, P<0.005) was 15%, the “reduction of fatigue from baseline, Chalder Fatigue Scale” value ([6]; 18 patients, P<0.005) was 45% and the “reduction, Visual Analogue Fatigue Scale” value ([6]; 18 patients, P<0.05) was 56%.
